Consider seven compounds from PubChem BioAssay AID1259335.

This assay relates to C. elegans L1 growth, INVAPP imaging, 5 days. Put plainly: anthelmintic effect on nematode larval growth – whole organism, confirmation (AID 1259335).
By EC50 is commonly meant the concentration at which the effect is half-maximal. As to `O=C(Nc1ccc(F)c(-c2nc3ncc(-c4ccccc4)cc3[nH]2)c1)N1CCCC1`, the EC50 was 3300 nM.
To `O=C(Nc1ccc2c(c1)B(O)OC2)c1ccccc1C(F)(F)F` belongs 4300 nM; to `Nc1ccc(C(=O)Nc2ccc(-c3nc4ccccc4o3)cc2)cc1`, 6200 nM.
To `Cc1cc(C(=O)Nc2ccc(-c3ccccc3)cc2)no1` belongs 2500 nM; to `COC(=O)C1=C(C)NC(C)=C(C(=O)OC(C)C)[C@H]1c1cccc2nonc12`, 1600 nM; to `COC(=O)Nc1nc2ccc(C(=O)c3ccccc3)cc2[nH]1`, 1100 nM.
To `CCc1nn(C)c(C(=O)NCc2ccc(Oc3ccc(C)cc3)cc2)c1Cl` belongs 200 nM.
